According to PMC3891991, “Synthesis and molecular modeling of six novel monastrol analogues: evaluation of cytotoxicity and kinesin inhibitory activity against HeLa cell line” (DARU Journal of Pharmaceutical Sciences, 2013):
≈ marks a conversion by molar mass, not a printed value.

What was measured:
[1] = target: T1, kinesin heavy chain Motor (Homo sapiens, UniProt P33176); assay: Kinesin ATPase activity assay (ELIPA kit, inorganic phosphate); format: biochemical; details: ATPase activity of kinesin, n = 2, read-out: IC 50 (μg/ml) for Kinesin inhibition (converted)
T1 construct: kinesin heavy chain Motor (Cytoskeleton, Cat # KR01-A); purchased Cytoskeleton KR01-A
T1 sequence (P33176 8-325 limits assumed): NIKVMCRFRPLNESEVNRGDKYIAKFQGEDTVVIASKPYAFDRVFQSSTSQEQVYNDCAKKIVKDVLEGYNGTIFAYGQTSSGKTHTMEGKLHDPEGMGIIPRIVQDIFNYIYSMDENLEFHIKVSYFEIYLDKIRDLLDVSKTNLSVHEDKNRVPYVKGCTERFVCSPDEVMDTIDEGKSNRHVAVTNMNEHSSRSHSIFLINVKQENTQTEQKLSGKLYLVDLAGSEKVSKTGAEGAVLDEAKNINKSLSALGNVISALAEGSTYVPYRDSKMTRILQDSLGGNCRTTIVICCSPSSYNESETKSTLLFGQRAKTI

HeLa cell line = assay: MTT cytotoxicity assay on HeLa cells; details: Homo sapiens, 24 h, read-out: IC 50 (μg/ml) ± SD on HeLa cell line
Procedure: HeLa cell line was obtained from National Cell Bank of Iran, Pasteur Institute of Iran.
Cytotoxic effects of synthesized compounds were determined using the MTT [3-(4,5-dimethylthiazol-2-yl)-2,5-diphenyltetrazolium bromide] assay [18-20]. Briefly, 5000 HeLa cells/well were seeded in a 96-well plate and cultured overnight. Different concentrations of synthesized compounds were added to each well. […] Then, the medium was removed, and the purple formazan crystals were dissolved in 150 μl dimethylsulfoxide (Merck, Germany). Absorbance was measured at 545 nm (630 nm as a reference) in Synergy H4 Hybrid Multi-Mode Microplate Reader (Biotek, Model: H4MLFPTAD). IC50 was calculated using CalcuSyn (BioSoft).
HeLa cells were incubated with different concentrations of newly synthesized compounds for 24 h and cytotoxicities were evaluated using MTT assay.

Compound: CSc1ncc(C2NC(=O)NC3=C2C(=O)CC(C)(C)C3)n1Cc1ccc(F)cc1 (stereo not drawn) [Compound 4e, 4-[1-(4-fluorobenzyl)-2-(methylthio)-1H-imidazol-5-yl]-3,4,7,8 – tetrahydro-7,7 dimethyl quinazoline-2,5-(1H,6H)-diones]
- IC50 [1]: 232 µM
- IC50 (HeLa cell line): 110 ± 28 µg/mL (≈ 265 µM)
- melting point: 82 °C

Compound: CSc1ncc(C2NC(=O)NC3=C2C(=O)CC(C)(C)C3)n1Cc1ccccc1 (stereo not drawn) [Compound 4a, 4-[1-benzyl-2-(methylthio)-1H-imidazol-5-yl)-3,4,7,8-tetrahydro-7,7 dimethyl-quinazoline-2,5-(1H,6H)-diones]
- IC50 [1]: 182 µM
- IC50 (HeLa cell line): 210 ± 21 µg/mL (≈ 530 µM)
- melting point: 169 °C

Compound: CSc1ncc(C2NC(=S)NC3=C2C(=O)CC(C)(C)C3)n1Cc1ccc(F)cc1 (stereo not drawn) [Compound 4f, 4-[1-(4-fluorobenzyl)-2-methylthio-1H-imidazol-5-yl]-1,2,3,4,7,8-hexahydro-7,7-dimethyl-2-thiooxoquinazoline-5-(6H)-one]
- IC50 [1]: 460 µM
- IC50 (HeLa cell line): 339 ± 23 µg/mL (≈ 787 µM)
- melting point: 149 °C

Compound: CC1(C)CC(=O)C2=C(C1)NC(=S)NC2c1cccc(O)c1 (stereo not drawn) [dimethylenastrone, dimethylenastron, reference compound]
- IC50 (HeLa cell line): 338 ± 26 µg/mL (≈ 1120 µM)

Compound: CSc1ncc(C2NC(=S)NC3=C2C(=O)CC(C)(C)C3)n1Cc1ccccc1Cl (stereo not drawn) [Compound 4d, 4-[1-(2-chlorobenyl)-2-methylthio-1H-imidazol-5-yl]-1,2,3,4,7,8-hexahydro-7,7 dimethyl-2-thio oxoquinazoline-5-(6H)-one]
- melting point: 142 °C

Compound: CC(=O)O[C@H]1C(=O)[C@@]2(C)[C@H]([C@H](OC(=O)c3ccccc3)[C@]3(O)C[C@H](OC(=O)[C@H](O)[C@@H](NC(=O)c4ccccc4)c4ccccc4)C(C)=C1C3(C)C)[C@]1(OC(C)=O)CO[C@@H]1C[C@@H]2O [Taxol, reference compound]
- IC50 [1]: 8.2 µM

Compound: CSc1ncc(C2NC(=O)NC3=C2C(=O)CC(C)(C)C3)n1Cc1ccccc1Cl (stereo not drawn) [Compound 4c, 4-[1-(2-chlorobenzyl)-2-(methylthio)-1H-imidazol-5-yl]-3,4,7,8-tetrahydro-7,7 dimethyl quinazoline-2,5-(1H,6H)-diones]
- IC50 [1]: 183 µM
- IC50 (HeLa cell line): 98 ± 19 µg/mL (≈ 227 µM)
- melting point: 149 °C

Compound: CSc1ncc(C2NC(=S)NC3=C2C(=O)CC(C)(C)C3)n1Cc1ccccc1 (stereo not drawn) [Compound 4b, 4-[1-benzyl-2-(methylthio)-1H-imidazol-5-yl)-1,2,3,4,7,8-hexahydro-7,7 dimethyl-2-thio oxoquinazoline-5-(6H)-one]
- IC50 [1]: 187 µM
- IC50 (HeLa cell line): 301 ± 22 µg/mL (≈ 730 µM)
- melting point: 157 °C
